Where only a bound is given, the exact number is not on record here.

One assay has as its target T1, mTOR kinase (Homo sapiens, UniProt P42345).
T1 construct: purchased Millipore, USA
In words: mTOR kinase TR-FRET assay. The settings on record: read-out: mTO R. The format is biochemical. The method in brief: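 TR-FRET read-out (340 nm excitation, 615/665 nm emission) of Thr389 phosphorylation of a ULight-labeled p70 S6K peptide (50 nM) by mTOR, 20 μM ATP, 60 min room temperature after 60 min compound preincubation. Buffer HEPES pH 7.5 with MnCl2, EGTA; IC50 by sigmoidal dose-response.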
(TR-FRET usually uses a lanthanide donor and a delayed reading to cut background.)

For another assay, the system named is PC3 cells. Nature of the assay: XTT assay for cell viability, PC3 cells. The class given is cell-based, human. Summed up: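 PC3 cells seeded at 1000 cells/well, grown 24 h, then exposed to serial dilutions of compound for 96 h. Viability read by XTT dye at 37° C, absorbance 465 nm. EC50 from sigmoidal dose-response fit.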
Assay [1] deals with T2, PI3Kα (wild-type), P110/P85α (Homo sapiens, UniProt P42336).
T2 construct: made in house; host or cells: SF9 insect cells
In words: PI3 Kinase TR-FRET assay, PI3Kα (wild-type). The class given is biochemical. The method in brief: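 TR-FRET read-out of PIP3 formation via biotin-PIP3 displacement (665/615 nm ratio) gave IC50 curves. Enzyme: 5 ng wild-type P110/P85α from Sf9 cells, 60 min RT with compound and PIP2 (MgCl2 40 mM, DTT 5 mM), then 30 min RT kinase reaction at 10 μM ATP and 10 μM PIP2.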

For assay [2], the system named is pS6RP(S235/236), PC3 cells. In words: In-cell Western assay, pS6RP(S235/236) in PC3 cells. The class given is cell-based, human. On the procedure: Cells from human prostate cancer cell line PC3 (American Type Culture Collection (ATCC), Manassas, Va. 20108 USA) were seeded at an optimal density of 22,000 cell/well in 96-well plates containing Ham's F12K medium (90 μL) and incubated overnight. The compound dilutions were carried out in 100% DMSO followed by a dilution in the medium. Test compounds were added in serial dilutions to the wells and incubated for 2 h. The cells were washed and fixed with 4% paraformaldehyde. After incubation at room temperature for 1 h in the dark, blocking was done for 2 h at room temperature. Primary antibodies for phosphorylated (p) AKT(5473) (phosphorylated at serine 473), pAKT(T308) (phosphorylated at threonine 308) and for pS6RP(S235/236) (phosphorylated at serine 235/236) (commercially available from Cell Signaling Technology®, whose protocol was followed for the in-cell western assay, were diluted to the required concentration and added to the corresponding wells followed by overnight incubation at 4° C. Eu-labeled rabbit (PE) (Perkin-Elmer USA catalog #AD0106) secondary antibody was added and incubated for 2 h at room temperature. Delfia® enhancement solution (cat #1244-105, Perkin Elmer USA) was subsequently added to the plate before taking the reading at 615 nm with excitation wavelength of 340 nm, after which 0.5 μg/mL of Hoechst® 33258 dye (Catalog #86140-5, Sigma) was added to the plate and fluorescence emission was read at 460 nm with 355 nm excitation, to evaluate the correction factor. IC50 values were calculated using a sigmoidal dose-response curve fit in GraphPad Prism® v5 software.

The mark [3] stands for this setting: Homo sapiens, PC-3, cell viability.
Setting [4] is: Homo sapiens, PC-3, In-cell Western.

T2 sequence (P42336 whole entry): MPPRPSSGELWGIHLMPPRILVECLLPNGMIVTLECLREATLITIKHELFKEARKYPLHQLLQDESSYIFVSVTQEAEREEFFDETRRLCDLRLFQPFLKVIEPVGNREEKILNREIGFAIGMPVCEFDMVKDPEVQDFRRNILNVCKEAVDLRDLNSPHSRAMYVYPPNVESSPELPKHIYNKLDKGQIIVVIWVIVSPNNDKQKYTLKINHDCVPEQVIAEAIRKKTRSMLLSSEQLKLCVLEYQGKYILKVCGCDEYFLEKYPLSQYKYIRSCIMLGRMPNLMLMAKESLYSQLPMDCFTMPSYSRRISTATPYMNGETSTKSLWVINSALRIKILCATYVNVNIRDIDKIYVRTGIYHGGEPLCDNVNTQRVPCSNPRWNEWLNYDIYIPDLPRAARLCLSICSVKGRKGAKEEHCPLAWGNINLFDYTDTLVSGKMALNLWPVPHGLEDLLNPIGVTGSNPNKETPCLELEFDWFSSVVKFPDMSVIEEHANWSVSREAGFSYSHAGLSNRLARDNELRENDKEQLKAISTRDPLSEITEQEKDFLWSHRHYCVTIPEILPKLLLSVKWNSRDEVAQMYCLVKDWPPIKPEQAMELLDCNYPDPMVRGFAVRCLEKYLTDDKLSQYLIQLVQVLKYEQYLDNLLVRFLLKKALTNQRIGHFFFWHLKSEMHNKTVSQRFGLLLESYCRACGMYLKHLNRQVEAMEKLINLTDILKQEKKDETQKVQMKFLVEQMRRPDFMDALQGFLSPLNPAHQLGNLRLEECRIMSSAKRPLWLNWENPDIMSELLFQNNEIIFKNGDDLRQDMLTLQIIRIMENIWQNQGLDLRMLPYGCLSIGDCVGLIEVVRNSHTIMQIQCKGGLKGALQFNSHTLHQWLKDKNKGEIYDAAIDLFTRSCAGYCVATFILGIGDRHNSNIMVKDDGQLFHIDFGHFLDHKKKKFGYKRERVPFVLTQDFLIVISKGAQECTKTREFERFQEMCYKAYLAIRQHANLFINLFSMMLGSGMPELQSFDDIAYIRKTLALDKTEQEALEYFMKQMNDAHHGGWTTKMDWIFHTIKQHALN
T2 sequence (P27986 whole entry partner): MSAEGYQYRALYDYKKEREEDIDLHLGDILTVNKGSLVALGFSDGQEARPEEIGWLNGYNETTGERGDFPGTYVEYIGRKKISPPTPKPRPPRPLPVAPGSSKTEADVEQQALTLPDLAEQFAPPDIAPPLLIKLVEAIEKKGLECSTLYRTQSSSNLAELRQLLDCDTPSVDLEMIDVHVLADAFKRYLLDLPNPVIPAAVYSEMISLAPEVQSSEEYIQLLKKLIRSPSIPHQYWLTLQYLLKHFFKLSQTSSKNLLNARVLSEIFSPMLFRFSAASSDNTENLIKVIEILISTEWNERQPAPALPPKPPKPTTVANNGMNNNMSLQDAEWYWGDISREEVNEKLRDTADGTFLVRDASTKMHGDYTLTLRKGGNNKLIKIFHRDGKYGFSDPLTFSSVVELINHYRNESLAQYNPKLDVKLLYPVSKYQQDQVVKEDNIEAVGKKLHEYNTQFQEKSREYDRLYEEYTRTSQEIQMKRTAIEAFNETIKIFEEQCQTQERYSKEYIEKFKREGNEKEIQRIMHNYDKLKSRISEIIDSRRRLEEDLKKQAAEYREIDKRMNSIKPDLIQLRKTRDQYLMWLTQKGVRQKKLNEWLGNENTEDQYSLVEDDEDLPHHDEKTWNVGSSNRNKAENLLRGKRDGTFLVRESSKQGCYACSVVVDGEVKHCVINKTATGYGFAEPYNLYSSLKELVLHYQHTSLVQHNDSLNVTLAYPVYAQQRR

In the case of `CN(C)C(=O)c1ccc(NC(=O)Nc2ccc(-c3nc(N4CCOCC4)c4cc(F)c(-c5cccnc5F)cc4n3)cn2)cc1` [Example 112, 4-(3-(5-(6-fluoro-7-(2-fluoropyridin-3-yl)-4-morpholino-quinazolin-2-yl)pyridin-2-yl)ureido)-N,N-dimethyl-benzamide], the IC50 on mTOR kinase is 201 to 10000 nM; with PC3 cells (setting [3]), less than 100 nM; in assay [1], less than 50 nM; in assay [2] (setting [4]), 501 to 5000 nM.
On to `CN(C)C(=O)c1ccc(NC(=O)Nc2ccc(-c3nc(N4CCOCC4)c4ccc(-c5cccnc5NCCO)cc4n3)cc2)cc1` [Example 283, 4-(3-(4-(7-(2-((2-hydroxyethyl)amino)pyridin-3-yl)-4-morpholine-quinazolin-2-yl)phenyl)ureido)-N,N-dimethyl-benzamide], for which the IC50 on mTOR kinase lay within 50 to 200 nM; in the assay on PC3 cells (setting [3]), 201 to 10000 nM; in assay [1] it was 201 to 10000 nM; in assay [2] (setting [4]), 201 to 10000 nM.
On to `CN(C)C(=O)c1ccc(NC(=O)Nc2ccc(-c3nc(N4CCOCC4)c4ccc(-c5cccnc5)cc4n3)c(F)c2)cc1` [Example 243, 4-(3-(3-fluoro-4-(4-morpholino-7-(pyridin-3-yl)quinazolin-2-yl)phenyl)ureido)-N,N-dimethyl-benzamide], for which the IC50 at mTOR kinase is less than 50 nM; in the assay on PC3 cells (setting [3]), 201 to 10000 nM; in assay [1] it was less than 50 nM; in assay [2] (setting [4]) it was 201 to 10000 nM.
Take `CN(C)C(=O)c1ccc(NC(=O)Nc2ccc(-c3nc(N4CCOCC4)c4ccc(-c5cccc(S(C)(=O)=O)c5)cc4n3)cc2F)cn1` [Example 130, 5-(3-(2-fluoro-4-(7-(3-(methylsulfonyl)phenyl)-4-morpholino-quinazolin-2-yl)phenyl)ureido)-N,N-dimethylpicolinamide]: the IC50 was less than 50 nM on mTOR kinase, 201 to 10000 nM in the assay with PC3 cells (setting [3]), less than 50 nM in assay [1] and 201 to 10000 nM in assay [2] (setting [4]).
Turning to `CC1CN(c2nc(-c3ccc(NC(=O)Nc4ccc(C(=O)N(C)C)cc4)c(F)c3)nc3cc(-c4cncnc4)ccc23)CC(C)O1` (centres unmarked) [Example 132, 4-(3-(4-(4-(2,6-dimethylmorpholino)-7-(pyrimidin-5-yl)quinazolin-2-yl)-2-fluorophenyl)ureido)-N,N-dimethyl-benzamide], the IC50 lay in the range of 50 to 200 nM on mTOR kinase, 201 to 10000 nM in the assay on PC3 cells (setting [3]), 201 to 10000 nM in assay [1] and 201 to 10000 nM in assay [2] (setting [4]).
For `COc1ncc(-c2ccc3c(N4CCOCC4)nc(-c4ccc(NC(=O)Nc5ccc(C(=O)N(C)C)cc5)c(F)c4)nc3c2)cn1` [Example 105, 4-(3-(2-fluoro-4-(7-(2-methoxypyrimidin-5-yl)-4-morpholino-quinazolin-2-yl)phenyl)ureido)-N,N-dimethyl-benzamide], the IC50 at mTOR kinase was less than 50 nM; in the assay with PC3 cells (setting [3]), 201 to 10000 nM; in assay [1], 50 to 200 nM; in assay [2] (setting [4]), 201 to 10000 nM.
For the compound `Cc1noc(C)c1-c1ccc2c(N3CCOCC3)nc(-c3ccc(NC(=O)Nc4ccc(C(=O)N(C)C)c(F)c4)cc3)nc2c1` [Example 246, 4-(3-(4-(7-(3,5-dimethylisoxazol-4-yl)-4-morpholino-quinazolin-2-yl)phenyl)ureido)-2-fluoro-N,N-dimethyl-benzamide], the IC50 on mTOR kinase is less than 50 nM; in the assay with PC3 cells (setting [3]), 201 to 10000 nM; in assay [1] it was 50 to 200 nM; in assay [2] (setting [4]), 201 to 10000 nM.
With `COc1ncc(-c2cnc3c(N4CCOCC4)nc(-c4ccc(NC(=O)Nc5ccc(C(=O)N(C)C)cc5)c(F)c4)nc3c2)cn1` [Example 117, 4-(3-(2-fluoro-4-(7-(2-methoxypyrimidin-5-yl)-4-morpholino-pyrido[3,2-d]pyrimidin-2-yl)phenyl)ureido)-N,N-dimethyl-benzamide], the IC50 is less than 50 nM on mTOR kinase, less than 100 nM in the assay with PC3 cells (setting [3]), less than 50 nM in assay [1] and 201 to 10000 nM in assay [2] (setting [4]).
Regarding `Cc1ccc(-c2ccc3c(N4CCOCC4)nc(-c4ccc(NC(=O)Nc5ccc(C(=O)N6CCC(N(C)C)CC6)cc5)cc4)nc3c2)o1` [Example 191, 1-(4-(4-(dimethylamino)piperidine-1-carbonyl)phenyl)-3-(4-(7-(5-methylfuran-2-yl)-4-morpholino-quinazolin-2-yl)phenyl)urea], the IC50 at mTOR kinase fell in the range of 50 to 200 nM; in the assay on PC3 cells (setting [3]) it was 201 to 10000 nM; in assay [1], 201 to 10000 nM; in assay [2] (setting [4]), 201 to 10000 nM.
`CN(C)C(=O)c1ccc(NC(=O)Nc2ccc(-c3nc(N4CCOCC4)c4ccc(-c5cccnc5)cc4n3)cc2F)cc1` [Example 103, 4-(3-(2-fluoro-4-(4-morpholino-7-(pyridin-3-yl)quinazolin-2-yl)phenyl)ureido)-N,N-dimethyl-benzamide]: the IC50 was less than 50 nM at mTOR kinase, 201 to 10000 nM in the assay on PC3 cells (setting [3]), less than 50 nM in assay [1] and 201 to 10000 nM in assay [2] (setting [4]).
With `CC1CN(c2nc(-c3ccc(NC(=O)Nc4ccc(C(=O)N(C)C)cc4)cc3)nc3cc(-c4cncnc4)ccc23)CC(C)O1` (centres unmarked) [Example 128, 4-(3-(4-(4-(2,6-dimethylmorpholino)-7-(pyrimidin-5-yl)quinazolin-2-yl)phenyl)ureido)-N,N-dimethyl-benzamide], the IC50 on mTOR kinase was less than 50 nM; in the assay on PC3 cells (setting [3]) it was less than 100 nM; in assay [1], 201 to 10000 nM; in assay [2] (setting [4]), 201 to 10000 nM.
Consider `CN(C)[C@@H]1CCN(C(=O)c2ccc(NC(=O)Nc3ccc(-c4nc(N5CCOCC5)c5ccc(-c6cncnc6)cc5n4)cc3)cc2)C1` [Example 187, (R)-1-(4-(3-(dimethylamino)pyrrolidine-1-carbonyl)phenyl)-3-(4-(4-morpholino-7-(pyrimidin-5-yl)quinazolin-2-yl)phenyl)urea], for which the IC50 was less than 50 nM on mTOR kinase, 201 to 10000 nM in the assay on PC3 cells (setting [3]), less than 50 nM in assay [1] and 201 to 10000 nM in assay [2] (setting [4]).
`COc1ccc2c(N3CCOCC3)nc(-c3ccc(NC(=O)Nc4ccc(C(=O)N(C)C)cc4)cc3)nc2c1` [Example 180, 4-(3-(4-(7-methoxy-4-morpholino-quinazolin-2-yl)phenyl)ureido)-N,N-dimethyl-benzamide]: the IC50 is less than 50 nM on mTOR kinase, 201 to 10000 nM in the assay on PC3 cells (setting [3]), less than 50 nM in assay [1] and 201 to 10000 nM in assay [2] (setting [4]).
As for `CN(C)C(=O)c1ccc(NC(=O)Nc2ccc(-c3nc(N4CCOCC4)c4ccc(-c5ccc(C(C)(C)O)o5)cc4n3)cc2)cc1` [Example 222, 4-(3-(4-(7-(5-(2-hydroxypropan-2-yl)furan-2-yl)-4-morpholino-quinazolin-2-yl)phenyl)ureido)-N,N-dimethyl-benzamide], the IC50 on mTOR kinase was less than 50 nM; in the assay with PC3 cells (setting [3]), 201 to 10000 nM; in assay [1], less than 50 nM; in assay [2] (setting [4]) it was 201 to 10000 nM.
On to `CN(C)C(=O)c1ccc(NC(=O)Nc2ccc(-c3nc(N4CCOCC4)c4ncc(-c5cccc(S(C)(=O)=O)c5)cc4n3)cn2)cc1` [Example 115, N,N-dimethyl-4-(3-(5-(7-(3-(methylsulfonyl)phenyl)-4-morpholino-pyrido[3,2-d]pyrimidin-2-yl)pyridin-2-yl)ureido)-benzamide], for which the IC50 is 50 to 200 nM on mTOR kinase, 201 to 10000 nM in the assay with PC3 cells (setting [3]), less than 50 nM in assay [1] and 201 to 10000 nM in assay [2] (setting [4]).
As to `CN(C)C(=O)c1ccc(NC(=O)Nc2ccc(-c3nc(N4CCOCC4)c4ccc(-c5ccco5)cc4n3)cc2)cc1` [Example 80, N,N-dimethyl-4-(3-{4-[7-(furan-2-yl)-4-morpholin-4-yl-quinazolin-2-yl]-phenyl}-ureido)-benzamide], the IC50 at mTOR kinase is less than 50 nM; in the assay on PC3 cells (cell viability) it was less than 100 nM; in assay [1], less than 50 nM; in assay [2] (In-cell Western), less than 100 nM.
With `Cc1ccncc1-c1cnc2c(N3CCOCC3)nc(-c3ccc(NC(=O)Nc4ccc(C(=O)N(C)C)cc4)cc3)nc2c1` [Example 93, N,N-dimethyl-4-(3-(4-(7-(4-methylpyridin-3-yl)-4-morpholino-pyrido[3,2-d]pyrimidin-2-yl)phenyl)ureido)-benzamide], the IC50 is less than 50 nM at mTOR kinase, 201 to 10000 nM with PC3 cells (setting [3]), less than 50 nM in assay [1] and 201 to 10000 nM in assay [2] (setting [4]).

The values are drawn from US9115092B2, “Substituted quinazoline and pyrido-pyrimidine derivatives” (Asana Biosciences, LLC, priority 2010, dated 2015).
